# Where a name gives a salt, the structure may show the parent alone.
# Test system: NF-κB mediated transcription
# Test: NF-κB driven β-lactamase reporter assay in ECV-304 NF-κB.βlaZ cells (AURORA CCF2 fluorescence)
# Assay type: cell-based, human
# Details: Homo sapiens, ECV-304, 6 h, 10 μM compound; ECV-304 NF-κB.βlaZ cells stimulated with 10 ng/mL TNF-α or 100 pg/mL IL-1β, 6 hours at 37° C.; inhibition of maximum blue/green ratio; read-out: Percent Inhibition at 10 μM
# Procedure, shortened: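 Blue/green (460/530 nm, excitation 395 nm) CCF2 emission ratio quantified NF-κB-driven β-lactamase expression in the stably transfected endothelial-like ECV-304 clone 1E8.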
row,Compound,inhibition at 10 µM
1,"CC(C)c1cc(C(C)C)c(CC(=O)NS(=O)(=O)Oc2c(C(C)C)cc(NC(=O)CCN)cc2C(C)C)c(C(C)C)c1 [Example 220, [2-(2,4,6-Triisopropyl-phenyl)-acetyl]-sulfamic acid 4-(3-amino-propionylamino)-2,6-diisopropyl-phenyl ester; compound with trifluoro-acetic acid]",65.5%
2,"CC(C)c1cccc(C(C)C)c1NC(=O)NS(=O)(=O)N(Cc1ccccc1)C(C)C [Example 22, N-[2,6-bis(1-methylethyl)phenyl]-N′-[[(1-methylethyl)-(phenylmethyl)amino]-sulfonyl]-urea]",20.2%
3,"CC(C)c1cc(C(C)C)c(CC(=O)NS(=O)(=O)Oc2c(C(C)C)cc(OCCCN(C)C)cc2C(C)C)c(C(C)C)c1 [Example 205, [(2,4,6-Triisopropyl-phenyl)-acetyl]-sulfamic acid 4-(3-dimethylamino-propoxy)-2,6-diisopropyl-phenyl ester]",11.7%
4,"CC(C)c1cc(C(C)C)c(CC(=O)NS(=O)(=O)Oc2c(C(C)C)cc(NC(=O)[C@@H](C)N)cc2C(C)C)c(C(C)C)c1 [Example 206, [2-(2,4,6-Triisopropyl-phenyl)-acetyl]-sulfamic acid 4-((R)-2-amino-propionylamino)-2,6-diisopropyl-phenyl ester; compound with trifluoro-acetic acid]",47.9%
5,"CCCCCCCCCCCCCCCCS(=O)(=O)NC(=O)Nc1c(C(C)C)cccc1C(C)C [Example 238, N-[2,6-bis(1-methylethyl)phenyl]-N′-(hexadecylsulfonyl)-urea]",12%

# Same assay, conditions: Homo sapiens; 10 μM compound; ECV-304 NF-κB.βlaZ cells stimulated with 10 ng/mL TNF-α or 100 pg/mL IL-1β, 6 hours at 37° C.; inhibition of maximum blue/green ratio; read-out: Percent Inhibition at 10 μM
row,Compound,inhibition at 10 µM
1,"CC(C)c1cccc(C(C)C)c1NS(=O)(=O)NC(=O)Oc1c(C(C)C)cccc1C(C)C [Example 4, Carbamic acid, [[[2,6-bis(1-methylethyl)phenyl]amino]sulfonyl]-, 2,6-bis(1-methylethyl)phenyl ester]",35.3%
2,"CC(C)c1cccc(C(C)C)c1OS(=O)(=O)NC(=O)Oc1cccnc1 [Example 178, Carbamic acid, [[2,6-bis(1-methylethyl)phenoxy]sulfonyl]-, 3-pyridinyl ester]",< 10%
3,"Cc1cc(C(C)(C)C)c(OC(=O)NS(=O)(=O)N(C)CCc2ccccn2)c(C(C)(C)C)c1 [Example 42, Carbamic acid, [[methyl[2-(2-pyridinyl)ethyl]amino]sulfonyl]-, 2,6-bis(1,1-dimethylethyl)-4-methylphenyl ester, monohydrochloride]",< 10%

# Reference: patent US20020183384A1, “Methods of treating nuclear factor-kappa B mediated diseases and disorders” (priority 2001, published 2002)
